Results on six compounds are retold here after ChEMBL document CHEMBL3044599, “Structure-activity relationship of citrus polymethoxylated flavones and their inhibitory effects on Aspergillus niger” (J Agric Food Chem, 2012).

The test concerns Aspergillus niger. As to the kind of experiment: Antifungal activity against Aspergillus niger CICC 2273 assessed as inhibition of mycelial growth by microbroth dilution method. Format: functional, organism-based. For orientation: Dilution methods test growth across graded concentrations, often in twofold steps.

Active and inactive are the calls of the source. The rule behind the calls is not given here.

For `COc1ccc(-c2oc3c(OC)c(OC)c(OC)c(OC)c3c(=O)c2O)cc1OC`, the inhibition entry is “inactive”.

On to `COc1ccc(-c2cc(=O)c3c(OC)c(OC)c(OC)cc3o2)cc1`, for which the inhibition result is “Active”.

Regarding `COc1ccc(-c2oc3cc(OC)c(OC)c(OC)c3c(=O)c2OC)cc1OC`, the inhibition result is “Active”.

In the case of `COc1ccc(-c2cc(=O)c3c(O)c(OC)c(OC)c(OC)c3o2)cc1OC`, the inhibition result was “Active”.

As to `CC(=O)C[C@H]1O[C@@H](Oc2ccc3c(=O)cc(-c4ccccc4)oc3c2)[C@H](O)[C@@H](O)[C@@H]1O`, the inhibition entry is “inactive”.

As for `COc1ccc(-c2cc(=O)c3c(OC)c(OC)c(OC)c(OC)c3o2)cc1OC`, the inhibition result is “Active”.
